The values below come from patent US8536196B2, “Substituted 1,3-dioxanes useful as PPAR modulators” (Evolva SA, priority 2007, dated 2013).

Experiment [1] addresses T1, full length human PPARdelta (Homo sapiens, UniProt Q03181).
T1 construct: expressed in transfected cells
T1 sequence (Q03181 1-441): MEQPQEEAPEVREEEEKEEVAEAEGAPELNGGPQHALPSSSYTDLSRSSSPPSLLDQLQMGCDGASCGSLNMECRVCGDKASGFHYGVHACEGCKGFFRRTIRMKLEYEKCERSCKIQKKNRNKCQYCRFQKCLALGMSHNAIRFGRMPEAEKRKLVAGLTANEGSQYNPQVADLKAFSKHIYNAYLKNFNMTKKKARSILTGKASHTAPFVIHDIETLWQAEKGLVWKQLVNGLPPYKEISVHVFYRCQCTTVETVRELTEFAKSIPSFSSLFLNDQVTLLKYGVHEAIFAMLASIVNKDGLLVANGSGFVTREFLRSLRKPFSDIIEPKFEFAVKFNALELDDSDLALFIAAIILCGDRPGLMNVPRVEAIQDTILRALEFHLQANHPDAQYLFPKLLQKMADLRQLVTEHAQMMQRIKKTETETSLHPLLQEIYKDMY
Briefly: Transactivation assay with full length human PPARdelta. Type of experiment: cell-based.

The subject of the next experiment is 3T3-L1 preadipocytes. Briefly: Glucose uptake assay. It is filed as cell-based. The protocol: This example illustrates that compounds identified as PPARgamma agonists also produce a physiological effect in cellular assays, expected of a PPARgamma agonist, namely an effect on glucose uptake. Glucose uptake assays are important to establish the suitability of a compound for the treatment of insulin resistance.
Briefly, 3T3-L1 preadipocytes are grown in 12-well plates until confluence. Cells are washed with serum-free DMEM and incubated with 1 ml of the same medium at 37° C. for 1-2 h. The cells are then washed with Krebs-Ringer-Hepes (KRP) buffer and then incubated with 0.9 ml KRP buffer at 37° C. for 30 min. Insulin is added to the cells at 0, 0.3, 1 and 3 nM final concentrations and incubated for 15 min at 37° C. Glucose uptake is initiated by the addition of 0.1 ml of Krebs-Ringer phosphate (KRP) buffer supplemented with 10 mM [^3H] 2-deoxy-D-glucose (1 mCi/l). After 10 min incubation at 37° C., the medium is aspirated and plates washed with ice-cold PBS to terminate the induced glucose uptake. The cells are lyzed with 0.5 ml 1% Triton X-100 and radioactivity levels determined using a scintillation counter. The results are depicted in FIG. 7.

The subject of the next experiment is HaCaT. Put plainly: Proliferation of non-cancer cell line (flow cytometry). It is filed as cell-based. The following applies: 20 μM, 48 hours of treatment. The procedure:
(§1) A human cervical carcinoma cell line (HeLa) engineered to stably express a recombinant biosensor reporter activity and a non-cancer cell line, HaCaT (Boukamp et al., 1988, J. Cell Biol 106(3):761-771) was used with a Caspa Tag kit (commercially available eg from Chemicon). The detection of proliferation was carried out using a high content screening automated flow cytometer.
(§2) DPD (Substance 1) was diluted to 20 μM in cell culture medium without serum adjusted to 1% DMSO. Detection of cellular events was performed in duplicate in 96-well plates after 48 hours of treatment in the FL2 (dilution of a proliferative marker) channels of a HTS flow cytometer (FACS Calibur HTS, Becton Dickenson). At day 1, cells were seeded in 96 well plates. Cells were treated with DPD and the appropriate controls on day 2 and analysis was carried out on day 4.
For orientation: Flow cytometry measures light scatter and fluorescence of single cells or particles in a stream.

The next experiment deals with T2, PPARgamma (h) (Homo sapiens, UniProt P37231).
T2 construct: host or cells: E. coli
T2 sequence (P37231 1-505): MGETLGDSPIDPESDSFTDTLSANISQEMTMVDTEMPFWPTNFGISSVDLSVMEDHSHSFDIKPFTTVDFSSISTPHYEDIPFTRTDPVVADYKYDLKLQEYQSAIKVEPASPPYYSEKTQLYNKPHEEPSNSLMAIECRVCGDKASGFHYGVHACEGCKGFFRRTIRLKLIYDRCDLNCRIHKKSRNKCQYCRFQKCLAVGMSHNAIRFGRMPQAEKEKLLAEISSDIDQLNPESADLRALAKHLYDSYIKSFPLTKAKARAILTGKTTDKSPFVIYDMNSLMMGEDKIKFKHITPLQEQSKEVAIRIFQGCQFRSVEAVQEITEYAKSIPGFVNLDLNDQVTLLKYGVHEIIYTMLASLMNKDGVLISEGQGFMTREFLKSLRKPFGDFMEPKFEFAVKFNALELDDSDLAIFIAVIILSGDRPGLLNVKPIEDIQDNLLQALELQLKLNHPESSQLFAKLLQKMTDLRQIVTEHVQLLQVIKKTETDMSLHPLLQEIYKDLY
Put plainly: Human recombinant (E. coli) PPARgamma (h) binding assay. The note with it: [3H]-rosiglitazone 10 nM, 120 min at 4° C. The protocol:
The results are expressed as a percent of control specific binding ((measured specific binding/control specific binding)×100) obtained in the presence of the test compounds. The IC50 values (concentration causing a half-maximal inhibition of control specific binding) and Hill coefficients (nH) were determined by non-linear regression analysis of the competition curves generated with mean replicate values using Hill equation curve fitting (Y=D+[(A D)/(1+(C/C50)nH)], where Y=specific binding, D=minimum specific binding, A=maximum specific binding, C=compound concentration, C50=IC50, and nH=slope factor). This analysis was performed using a software developed at Cerep (Hill software) and validated by comparison with data generated by the commercial software SigmaPlot® 4.0 for Windows® (© 1997 by SPSS Inc.). The inhibition constants (Ki) were calculated using the Cheng Prusoff equation (Ki=IC50/(1+(L/KD)), where L=concentration of radioligand in the assay, and KD=affinity of the radioligand for the receptor).

Experiment [2] addresses T3, full length human PPARgamma (hPPARg2) (Homo sapiens, UniProt P37231).
T3 construct: expressed in transfected cells
T3 sequence (P37231 1-505): T2 sequence (P37231 1-505)
Put plainly: Transactivation assay with full length human PPARgamma. It is filed as cell-based. The procedure: When this assay was carried out essentially as described above but with the full length human PPARgamma rather than with the PPARgamma ligand binding domain, activation of full-length hPPARg2 was seen to 64% of the Avandia positive control (FIG. 3).

Experiment [3] concerns human cervical carcinoma cell line (HeLa). Put plainly: Inhibition of cancer cell proliferation (flow cytometry). Type of experiment: cell-based. The note with it: 48 hours of treatment, read-out: inhibition of proliferation of HeLa cells. The protocol:
as §1, §2

A further experiment addresses T4, mPPARdeltaLBD (Mus musculus, UniProt P35396).
T4 construct: expressed in transfected cells
T4 sequence (P35396 210-438 limits assumed): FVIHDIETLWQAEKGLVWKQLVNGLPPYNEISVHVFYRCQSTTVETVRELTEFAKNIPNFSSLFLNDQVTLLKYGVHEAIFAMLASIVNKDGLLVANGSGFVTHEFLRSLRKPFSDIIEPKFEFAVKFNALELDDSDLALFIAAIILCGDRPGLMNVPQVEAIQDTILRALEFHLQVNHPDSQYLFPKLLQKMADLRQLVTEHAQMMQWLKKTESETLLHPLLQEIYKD
Put plainly: PPARdelta transactivation assay. Type of experiment: cell-based. The protocol:
This example describes a transactivation assay for determining PPARdelta modulating activity.
DPD and other ligands are tested for their ability to transactivate PPARdelta essentially as described in Example 22.

Take `O=C(O)CC/C=C\CC1COC(c2ccccc2Cl)OC1c1ccccc1O` (racemic) [SN1, (Z)-6-(-2-(2-chlorophenyl)-4-(2-hydroxyphenyl)-1,3-dioxan-5-yl)hex-4-enoic acid]: the “activation of full-length hPPARdelta” value in experiment [1] was “no activation”. The “glucose uptake compared with Avandia” value in the experiment with 3T3-L1 preadipocytes is “same level of glucose uptake at 10 mM as Avandia at 1 mM”. The “effect on non-cancer cell line HaCaT” value with HaCaT is “no effect”. Also, the IC50 (in general, the concentration that gives 50% inhibition) at PPARgamma (h) turned out to be 21 µM. Besides, in experiment [2], the “activation of full-length hPPARg2, % of the Avandia positive control” value was found to be 64%. For the same molecule, the inhibition at 20 µM in experiment [3] is 90%. Also, on mPPARdeltaLBD, the “increase in PPARdelta transactivation” value was “no or little increase in transactivation”.
